Columns and labels:
mice = test: In vivo delivery of FLuc-mRNA lipid nanoparticle preparations in mice (IVIS imaging); set-up: In vivo IVIS / In vivo IVIS (liver) / In vivo IVIS (spleen): unit not given here; conditions: for in vivo delivery efficiency as compared to the benchmark compound SM102: certain formulations
Description: 7. In Vivo Delivery of the Nucleic Acid Lipid Nanoparticle Preparations in Mice After the preparation was completed, the preparation was injected intramuscularly (mice rectus femoris muscle of the thigh) or intravenously (mice tail vein), with approximately 75 μL per mouse, for a total of 3 mice. After a certain time of injection, in vivo imaging (PerkinElmer, IVIS Lumina III) was performed. 10-15 minutes before imaging, 200 μL of 15 mg/mL D-Luciferin working solution was injected intraperitoneally, and the imaging analysis was performed using an in vivo imager.

[1] = Particle size and PDI by dynamic light scattering; assay type: physicochemical; conditions: Table 2; for Particle size (nm): LNP formulation with mRNA; for PDI: polydispersity value
Description: The 7.5 μL nucleic acid lipid nanoparticle solution (containing approximately 0.04 mg/mL mRNA) was taken and added with 200 μL ultrapure water, mixed by gentle blowing using a pipette tip, and the particle size of the nanopreparation was detected by dynamic lightscattering (DLS) using a Malvern Dynamic Light Scattering Instrument (Malvern Instruments Ltd., ZEN3700, UK). 27.5 μL nucleic acid lipid nanoparticle solution (containing about 0.04 mg/mL mRNA) was taken and added with 200 μL ultrapure water. A pipette tip was used to gently blow the sample and mix well. The particle size of the nanopreparation was detected by Malvern Dynamic Light Scattering Instrument (Malvern Instruments Ltd., ZEN3700, UK). After the detection, the sample was recovered to an EP tube, and 600 μL of ultrapure water was added, gently blown with a pipette tip, and the potential of the nanopreparation was measured by a Malvern particle size meter.

[2] = Table 2, IV, whole body scan, molar ratio DMG-PEG2000:DSPC:Chol:Lipid and N/P
[3] = molar ratio 1.09:8.66:30.25:60.00, N/P 21
[4] = molar ratio 1.40:11.15:38.95:48.50, N/P 21
[5] = molar ratio 1.09:8.66:30.25:60.00, N/P 30
[6] = molar ratio 1.40:11.15:38.95:48.50, N/P 30
[7] = molar ratio 1.40:11.15:38.95:48.50, N/P 24
[8] = molar ratio 1.63:12.99:45.38:40.00, N/P 24
[9] = molar ratio 1.09:8.66:30.25:60.00, N/P 50
[10] = molar ratio 1.40:11.15:38.95:48.50, N/P 50
[11] = molar ratio 0.95:7.58:26.47:65.00, N/P 30
[12] = molar ratio 1.09:8.66:30.25:60.00, N/P 20
[13] = molar ratio 1.40:11.15:38.95:48.50, N/P 10

Compound | In vivo IVIS (mice; Table 2, IM, whole body scan) | In vivo IVIS (mice; [2]) | Particle size (nm) [1] [nm] | PDI [1] | also measured
CCCCCCCCCCNC(=O)C(O)CN1CCN(CCN(CC(O)C(=O)NCCCCCCCCCC)CC(O)C(=O)NCCCCCCCCCC)CC1 (stereo not shown) [Compound L0180] | 1.10 × 10^7 | 3.15 × 10^6 |  |  | Particle size (nm) [1, 3]: 84.26 ± 0.81 nm; Particle size (nm) [1, 4]: 86.34 ± 1.35 nm; PDI [1, 3]: 0.13 ± 0.01; PDI [1, 4]: 0.18 ± 0.01
CCCCCCCCCCCCNC(=O)C(O)CN1CCN(CCN(CC(O)C(=O)NCCCCCCCCCCCC)CC(O)C(=O)NCCCCCCCCCCCC)CC1 (stereo not shown) [Compound L0181] | 3.37 × 10^6 |  | 71.39 ± 0.26 | 0.16 ± 0.02 | 
CCCCCCCCCCOC(=O)C(O)CN1CCN(CCN(CC(O)C(=O)OCCCCCCCCCC)CC(O)C(=O)OCCCCCCCCCC)CC1 (stereo not shown) [Compound L0182] | 3.25 × 10^7 | 4.99 × 10^6 |  |  | Particle size (nm) [1, 5]: 89.38 ± 0.09 nm; Particle size (nm) [1, 6]: 83.26 ± 0.68 nm; PDI [1, 5]: 0.16 ± 0.01; PDI [1, 6]: 0.14 ± 0.01
CCCCCCCCCCCCOC(=O)C(O)CN1CCN(CCN(CC(O)C(=O)OCCCCCCCCCCCC)CC(O)C(=O)OCCCCCCCCCCCC)CC1 (stereo not shown) [Compound L0183] | 2.37 × 10^7 | 5.98 × 10^7 |  |  | Particle size (nm) [1, 7]: 75.73 ± 0.33 nm; Particle size (nm) [1, 8]: 94.49 ± 1.06 nm; PDI [1, 7]: 0.14 ± 0.01; PDI [1, 8]: 0.16 ± 0.01
CCCCCCOCOCCCCCCOC(=O)C(O)CN1CCN(CCN(CC(O)C(=O)OCCCCCCOCOCCCCCC)CC(O)C(=O)OCCCCCCOCOCCCCCC)CC1 (stereo not shown) [Compound L0184] | 4.88 × 10^6 | 1.17 × 10^8 |  |  | Particle size (nm) [1, 9]: 128.20 ± 0.95 nm; Particle size (nm) [1, 10]: 119.60 ± 0.40 nm; PDI [1, 9]: 0.09 ± 0.01; PDI [1, 10]: 0.06 ± 0.00
CCCCCCCCCCSSCCOC(=O)C(O)CN1CCN(CCN(CC(O)C(=O)OCCSSCCCCCCCCCC)CC(O)C(=O)OCCSSCCCCCCCCCC)CC1 (stereo not shown) [Compound L0185] | 2.52 × 10^7 | 2.72 × 10^6 |  |  | Particle size (nm) [1, 11]: 94.35 ± 0.52 nm; Particle size (nm) [1, 6]: 84.46 ± 1.39 nm; PDI [1, 11]: 0.13 ± 0.02; PDI [1, 6]: 0.20 ± 0.00
CCCCCCCCC(CCCCCC)C(=O)OCCCCCCOC(=O)C(O)CN1CCN(CCN(CC(O)C(=O)OCCCCCCOC(=O)C(CCCCCC)CCCCCCCC)CC(O)C(=O)OCCCCCCOC(=O)C(CCCCCC)CCCCCCCC)CC1 (stereo not shown) [Compound L0188] | 1.87 × 10^7 | 1.61 × 10^8 | 97.72 ± 1.19 | 0.22 ± 0.02 | In vivo IVIS (liver) (mice; Table 2, IV): 4.17 × 10^7; In vivo IVIS (spleen) (mice; Table 2, IV): 4.65 × 10^7
CCCCCCCCCCNC(=O)C(O)CN(CCCN1CCN(CCCN(CC(O)C(=O)NCCCCCCCCCC)CC(O)C(=O)NCCCCCCCCCC)CC1)CC(O)C(=O)NCCCCCCCCCC (stereo not shown) [Compound L0189] | 2.16 × 10^6 | 3.12 × 10^7 |  |  | Particle size (nm) [1, 12]: 106.80 ± 0.85 nm; Particle size (nm) [1, 13]: 85.92 ± 0.69 nm; PDI [1, 12]: 0.06 ± 0.04; PDI [1, 13]: 0.07 ± 0.02
CCCCCCCCCCCCNC(=O)C(O)CN(CCCN1CCN(CCCN(CC(O)C(=O)NCCCCCCCCCCCC)CC(O)C(=O)NCCCCCCCCCCCC)CC1)CC(O)C(=O)NCCCCCCCCCCCC (stereo not shown) [Compound L0190] | 1.19 × 10^6 |  | 121.87 ± 2.71 | 0.20 ± 0.01 | 
CCCCCCCCCCCCNC(=O)C(O)CN(CC(=O)NCCCN1CCN(CCCNC(=O)CN(CC(O)C(=O)NCCCCCCCCCCCC)CC(O)C(=O)NCCCCCCCCCCCC)CC1)CC(O)C(=O)NCCCCCCCCCCCC (stereo not shown) [Compound L0193] | 2.43 × 10^5 | 4.33 × 10^5 | 93.86 ± 0.59 | 0.11 ± 0.02 | 
CCCCCCCCCCCCNC(=O)C(O)CN(CCC(=O)NCCCN1CCN(CCCNC(=O)CCN(CC(O)C(=O)NCCCCCCCCCCCC)CC(O)C(=O)NCCCCCCCCCCCC)CC1)CC(O)C(=O)NCCCCCCCCCCCC (stereo not shown) [Compound L0194] | 1.08 × 10^6 | 2.14 × 10^5 | 109.10 ± 0.50 | 0.13 ± 0.00 | 
CCCCCCCCCCCCNC(=O)C(O)CN(CCCC(=O)NCCCN1CCN(CCCNC(=O)CCCN(CC(O)C(=O)NCCCCCCCCCCCC)CC(O)C(=O)NCCCCCCCCCCCC)CC1)CC(O)C(=O)NCCCCCCCCCCCC (stereo not shown) [Compound L0195] | 6.81 × 10^5 | 4.54 × 10^5 | 90.79 ± 0.65 | 0.17 ± 0.02 | 
CCCCCCC(CCCCCC)C(=O)OCCCCOC(=O)C(O)CN(CCCN1CCN(CCCN(CC(O)C(=O)OCCCCOC(=O)C(CCCCCC)CCCCCC)CC(O)C(=O)OCCCCOC(=O)C(CCCCCC)CCCCCC)CC1)CC(O)C(=O)OCCCCOC(=O)C(CCCCCC)CCCCCC (stereo not shown) [Compound L0196] | 1.82 × 10^8 | 2.00 × 10^9 | 89.18 ± 0.22 | 0.11 ± 0.01 | in vivo delivery efficiency as compared to the benchmark compound SM102 (mice; Table 2): superior in vivo delivery efficiency
CCCCCCCCC(CCCCCC)C(=O)OCCCCCCOC(=O)C(O)CN(CCCN1CCN(CCCN(CC(O)C(=O)OCCCCCCOC(=O)C(CCCCCC)CCCCCCCC)CC(O)C(=O)OCCCCCCOC(=O)C(CCCCCC)CCCCCCCC)CC1)CC(O)C(=O)OCCCCCCOC(=O)C(CCCCCC)CCCCCCCC (stereo not shown) [Compound L0197] | 3.81 × 10^6 | 5.97 × 10^8 | 102.47 ± 0.25 | 0.13 ± 0.02 | In vivo IVIS (liver) (mice; Table 2, IV): 2.34 × 10^6; In vivo IVIS (spleen) (mice; Table 2, IV): 7.26 × 10^7
CCCCCCCCCCNC(=O)C(O)CN(CCN1CCN(CCN(CC(O)C(=O)NCCCCCCCCCC)CC(O)C(=O)NCCCCCCCCCC)CC1)CCN(CC(O)C(=O)NCCCCCCCCCC)CC(O)C(=O)NCCCCCCCCCC (stereo not shown) [Compound L0198] | 9.58 × 10^6 | 4.61 × 10^7 | 90.47 ± 0.74 | 0.17 ± 0.01 | 
CC/C=C\CCOCOCCCCCCOC(=O)C(O)CN(CCN1CCN(CCN(CC(O)C(=O)OCCCCCCOCOCC/C=C\CC)CC(O)C(=O)OCCCCCCOCOCC/C=C\CC)CC1)CCN(CC(O)C(=O)OCCCCCCOCOCC/C=C\CC)CC(O)C(=O)OCCCCCCOCOCC/C=C\CC (stereo not shown) [Compound L0201] | 2.18 × 10^6 | 4.46 × 10^6 | 119.70 ± 0.61 | 0.07 ± 0.01 | In vivo IVIS (liver) (mice; Table 2, IV): 5.29 × 10^8; In vivo IVIS (spleen) (mice; Table 2, IV): 7.89 × 10^7; in vivo delivery efficiency as compared to the benchmark compound SM102 (mice; Table 2): superior in vivo delivery efficiency
CCCC/C=C\CCOCOCCCCOC(=O)C(O)CN(CCN1CCN(CCN(CC(O)C(=O)OCCCCOCOCC/C=C\CCCC)CC(O)C(=O)OCCCCOCOCC/C=C\CCCC)CC1)CCN(CC(O)C(=O)OCCCCOCOCC/C=C\CCCC)CC(O)C(=O)OCCCCOCOCC/C=C\CCCC (stereo not shown) [Compound L0202] | 9.20 × 10^7 | 3.73 × 10^9 | 114.43 ± 0.96 | 0.07 ± 0.02 | in vivo delivery efficiency as compared to the benchmark compound SM102 (mice; Table 2): superior in vivo delivery efficiency
CCCCCCCCCCCCOC(=O)CCN(CCCN1CCN(CCCN(CCC(=O)OCCCCCCCCCCCC)CCC(=O)OCCCCCCCCCCCC)CC1)CCC(=O)OCCCCCCCCCCCC [L0191-Control, reference compound] |  |  |  |  | delivery efficiency, times lower than the hydroxy compound (L0191 or L0199) (mice; IM administration): ~20 times; delivery efficiency, times lower than the hydroxy compound (L0191 or L0199) (mice; IV administration): about 420 times; In vivo IVIS (mice; Table 4, IM): 1.07 × 10^6; In vivo IVIS (mice; Table 4, IV): 2.30 × 10^6
